In PubChem BioAssay (NCI):
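The compound was tested at five concentrations on cells cultured in 96-well plates, with a 48-hour exposure period. GI50 marks 50% less growth. TGI: concentration producing complete growth inhibition.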

Tests used:
Test in all cases: NCI-60 cell line screen, 48 h
SF-539 CNS = test system: SF-539 CNS
COLO 205 colon = test system: COLO 205 colon
MCF7 breast = test system: MCF7 breast
DU-145 prostate = test system: DU-145 prostate
MDA-MB-435 = test system: MDA-MB-435
UACC-62 melanoma = test system: UACC-62 melanoma
KM12 colon = test system: KM12 colon
CAKI-1 renal = test system: CAKI-1 renal
NCI-H522 lung = test system: NCI-H522 lung
LOX IMVI melanoma = test system: LOX IMVI melanoma
SK-MEL-5 melanoma = test system: SK-MEL-5 melanoma
NCI/ADR-RES ovarian = test system: NCI/ADR-RES ovarian
UACC-257 melanoma = test system: UACC-257 melanoma
SK-MEL-28 melanoma = test system: SK-MEL-28 melanoma
NCI-H226 lung = test system: NCI-H226 lung
CCRF-CEM leukemia = test system: CCRF-CEM leukemia
U251 CNS = test system: U251 CNS
TK-10 renal = test system: TK-10 renal
PC-3 prostate = test system: PC-3 prostate
SR leukemia = test system: SR leukemia
SW-620 colon = test system: SW-620 colon
UO-31 renal = test system: UO-31 renal
IGROV1 ovarian = test system: IGROV1 ovarian
K-562 leukemia = test system: K-562 leukemia
NCI-H23 lung = test system: NCI-H23 lung
OVCAR-5 ovarian = test system: OVCAR-5 ovarian
HT29 colon = test system: HT29 colon
EKVX NSCLC = test system: EKVX NSCLC
RXF 393 renal = test system: RXF 393 renal
OVCAR-4 ovarian = test system: OVCAR-4 ovarian
OVCAR-3 ovarian = test system: OVCAR-3 ovarian
OVCAR-8 ovarian = test system: OVCAR-8 ovarian
BT-549 breast = test system: BT-549 breast
SF-295 CNS = test system: SF-295 CNS
T-47D breast = test system: T-47D breast
ACHN renal = test system: ACHN renal
SK-MEL-2 melanoma = test system: SK-MEL-2 melanoma
786-0 renal = test system: 786-0 renal
M14 melanoma = test system: M14 melanoma
HOP-92 NSCLC = test system: HOP-92 NSCLC
SNB-75 CNS = test system: SNB-75 CNS
NCI-H460 lung = test system: NCI-H460 lung
MDA-MB-231 breast = test system: MDA-MB-231 breast
HOP-62 NSCLC = test system: HOP-62 NSCLC
RPMI-8226 leukemia = test system: RPMI-8226 leukemia
SNB-19 CNS = test system: SNB-19 CNS
HCT-116 colon = test system: HCT-116 colon
A498 renal = test system: A498 renal
MALME-3M melanoma = test system: MALME-3M melanoma
MOLT-4 leukemia = test system: MOLT-4 leukemia
SF-268 CNS = test system: SF-268 CNS
HCT-15 colon = test system: HCT-15 colon
A549 NSCLC = test system: A549 NSCLC
HS 578T breast = test system: HS 578T breast
SN12C renal = test system: SN12C renal

`COc1cc2c(/C=C3\C(=O)N(C)c4ccc(O)cc43)c[nH]c2cc1C` was tested, and the GI50 (SF-539 CNS) was 1.56 µM, the TGI (SF-539 CNS) was 3.74 µM and the GI50 (COLO 205 colon) was 3.7 µM. It also gave a TGI (COLO 205 colon) of 16.8 µM, a GI50 (MCF7 breast) of 2.28 µM and a TGI (MCF7 breast) of 7.35 µM. The GI50 (DU-145 prostate) was 3.56 µM, the TGI (DU-145 prostate) was 16.1 µM and the GI50 (MDA-MB-435) was 0.373 µM. The TGI (MDA-MB-435) was 1.5 µM, the GI50 (UACC-62 melanoma) was 9.73 µM and the TGI (UACC-62 melanoma) was 30.3 µM. The GI50 (KM12 colon) was 0.854 µM, the TGI (KM12 colon) was 3.52 µM and the GI50 (CAKI-1 renal) was 3.79 µM. The TGI (CAKI-1 renal) was 22.2 µM, the GI50 (NCI-H522 lung) was 1.47 µM and the TGI (NCI-H522 lung) was 5.2 µM. The GI50 (LOX IMVI melanoma) was 2.36 µM, the TGI (LOX IMVI melanoma) was over 100 µM and the GI50 (SK-MEL-5 melanoma) was 3.87 µM. For the same compound, the TGI (SK-MEL-5 melanoma) was 13.2 µM, the GI50 (NCI/ADR-RES ovarian) was 4.17 µM and the TGI (NCI/ADR-RES ovarian) was 25.9 µM. For the same compound, the GI50 (UACC-257 melanoma) was 2.54 µM, the TGI (UACC-257 melanoma) was 7.01 µM and the GI50 (SK-MEL-28 melanoma) was 2.99 µM. The TGI (SK-MEL-28 melanoma) was 28.1 µM, the GI50 (NCI-H226 lung) was 31.1 µM and the TGI (NCI-H226 lung) was 75.4 µM. The GI50 (CCRF-CEM leukemia) was 3.35 µM, the TGI (CCRF-CEM leukemia) was 35.9 µM and the GI50 (U251 CNS) was 3.35 µM. The TGI (U251 CNS) was 32.2 µM, the GI50 (TK-10 renal) was 6.04 µM and the TGI (TK-10 renal) was 32.6 µM. It also gave a GI50 (PC-3 prostate) of 3.5 µM, a TGI (PC-3 prostate) of 15.6 µM and a GI50 (SR leukemia) of 2.88 µM. It also gave a TGI (SR leukemia) of over 100 µM, a GI50 (SW-620 colon) of 3.83 µM and a TGI (SW-620 colon) of 34 µM. For the same compound, the GI50 (UO-31 renal) was 3.07 µM, the TGI (UO-31 renal) was 12.6 µM and the GI50 (IGROV1 ovarian) was 3.7 µM. For the same compound, the TGI (IGROV1 ovarian) was 22.3 µM, the GI50 (K-562 leukemia) was 4.67 µM and the TGI (K-562 leukemia) was over 100 µM. For the same compound, the GI50 (NCI-H23 lung) was 8.77 µM, the TGI (NCI-H23 lung) was 38.2 µM and the GI50 (OVCAR-5 ovarian) was 22 µM. The TGI (OVCAR-5 ovarian) was 42.5 µM, the GI50 (HT29 colon) was 3.67 µM and the TGI (HT29 colon) was over 100 µM. For the same compound, the GI50 (EKVX NSCLC) was 4.58 µM, the TGI (EKVX NSCLC) was 24.1 µM and the GI50 (RXF 393 renal) was 4.89 µM. For the same compound, the TGI (RXF 393 renal) was 45.2 µM, the GI50 (OVCAR-4 ovarian) was 5.3 µM and the TGI (OVCAR-4 ovarian) was over 100 µM. It also gave a GI50 (OVCAR-3 ovarian) of 3.86 µM, a TGI (OVCAR-3 ovarian) of 22.6 µM and a GI50 (OVCAR-8 ovarian) of 3.38 µM. It also gave a TGI (OVCAR-8 ovarian) of 14.5 µM, a GI50 (BT-549 breast) of 1.86 µM and a TGI (BT-549 breast) of 5.44 µM. For the same compound, the GI50 (SF-295 CNS) was 2.64 µM, the TGI (SF-295 CNS) was 17.3 µM and the GI50 (T-47D breast) was 4.05 µM. It also gave a TGI (T-47D breast) of 39.7 µM, a GI50 (ACHN renal) of 3.42 µM and a TGI (ACHN renal) of 26.6 µM. The GI50 (SK-MEL-2 melanoma) was 2.12 µM, the TGI (SK-MEL-2 melanoma) was 6.33 µM and the GI50 (786-0 renal) was 3.95 µM. For the same compound, the TGI (786-0 renal) was 21 µM, the GI50 (M14 melanoma) was 2.9 µM and the TGI (M14 melanoma) was 8.4 µM. It also gave a GI50 (HOP-92 NSCLC) of 14.3 µM, a TGI (HOP-92 NSCLC) of 34.3 µM and a GI50 (SNB-75 CNS) of 5.7 µM. It also gave a TGI (SNB-75 CNS) of 37 µM, a GI50 (NCI-H460 lung) of 2.62 µM and a TGI (NCI-H460 lung) of 7.79 µM. It also gave a GI50 (MDA-MB-231 breast) of 10.9 µM, a TGI (MDA-MB-231 breast) of 44.5 µM and a GI50 (HOP-62 NSCLC) of 5.98 µM. It also gave a TGI (HOP-62 NSCLC) of 20.1 µM, a GI50 (RPMI-8226 leukemia) of 3.54 µM and a TGI (RPMI-8226 leukemia) of 17.2 µM. The GI50 (SNB-19 CNS) was 6.16 µM, the TGI (SNB-19 CNS) was 52.9 µM and the GI50 (HCT-116 colon) was 3.16 µM. For the same compound, the TGI (HCT-116 colon) was 16 µM, the GI50 (A498 renal) was 20.8 µM and the TGI (A498 renal) was 39.6 µM. For the same compound, the GI50 (MALME-3M melanoma) was 2.44 µM, the TGI (MALME-3M melanoma) was 7.08 µM and the GI50 (MOLT-4 leukemia) was 3.3 µM. The TGI (MOLT-4 leukemia) was 10.6 µM, the GI50 (SF-268 CNS) was 5.29 µM and the TGI (SF-268 CNS) was 46.4 µM. For the same compound, the GI50 (HCT-15 colon) was 4.75 µM, the TGI (HCT-15 colon) was 67.8 µM and the GI50 (A549 NSCLC) was 3.05 µM. It also gave a TGI (A549 NSCLC) of 18.1 µM, a GI50 (HS 578T breast) of 4.33 µM and a TGI (HS 578T breast) of over 100 µM. The GI50 (SN12C renal) was 14.6 µM and the TGI (SN12C renal) was 47.2 µM.
